{"source": "patent US11311570B2", "about": "“Method of inducing satiety” (PERORA GMBH, priority 2014, dated 2022)", "key": {"[1]": {"details": "published rat feeding study, independent from intake; cited from earlier work"}, "[2]": {"experiment": "Tryptophan release / dissolution in simulated gastric and intestinal fluid", "format": "physicochemical", "details": "30 mg powder in 22 mL FaSSGF, 37° C.", "method": "A sample of 200 mg of tryptophan-containing granules was suspended in 22 mL fasted-state simulated gastric fluid (FaSSGF) at 37° C. and agitated (shaker ST5 from CAT, Germany). FaSSGF was prepared by dissolving 1 g of NaCl (Sigma-Aldrich) in 450 mL of water, adding 30 mg of SIF powder (biorelvant.com), adjusting the pH to 2.0 with 0.1 N HCl (Sigma-Aldrich) and adding water to a final volume of 500 mL.\nA sample of 200 mg of tryptophan-containing granules was suspended in 22 mL fasted-state simulated intestinal fluid (FaSSIF) at 37° C. and agitated (shaker ST5 from CAT, Germany).\n30 mg of tryptophan powder were suspended in 22 mL FaSSGF at 37° C. and agitated (shaker ST5 from CAT, Germany). Aliquots were removed at time intervals of 5 min, and tryptophan concentration was quantified using absorption measurement at a wavelength of 280 nm in a NanoDrop® 2000 device (Thermo Scientific, USA)."}}, "data": [{"smiles": "CCCCCCCCCCCCCCCCCC(=O)OCC(COC(=O)CCCCCCCCCCCCCCCCC)OC(=O)CCCCCCCCCCCCCCCCC", "note": "[tristearin]", "values": [{"measurement": "true digestibility of stearic acid from tristearin", "setting": "[1]", "result": 0.15, "unit": "g/g"}]}, {"smiles": "N[C@@H](Cc1c[nH]c2ccccc12)C(=O)O", "note": "[tryptophan powder, L-Tryptophan]", "values": [{"measurement": "time after which quantitatively dissolved", "setting": "[2]", "result": 10, "unit": "min"}]}]}
